The values below come from ChEMBL document CHEMBL1134402, “Atropisomeric derivatives of 2',6'-disubstituted (R)-11-phenylaporphine: selective serotonin 5-HT(7) receptor antagonists” (J Med Chem, 2001).

One may read the Ki as a measure of affinity in units of concentration, obtained from inhibition or displacement. Read a high Ki as lower affinity. Usually inhibition stands for how much of the control response was suppressed. Read a high inhibition as strong suppression.

SMILES strings stand for the structures.

The target of one assay is D(2) dopamine receptor (Homo sapiens, UniProt P14416). The assay can be described thus: Displacement of [3H]raclopride from human dopamine receptor D2A expressed in mouse Ltk cells. In kind it is cell-based. (In general: In a radioligand displacement assay an active substance lowers the binding of a labelled ligand.)
In assay [1] the target is 5-hydroxytryptamine receptor 7 (Rattus norvegicus, UniProt P32305). The assay can be described thus: Displacement of [3H]5-HT from rat 5-hydroxytryptamine 7 receptor expressed in CHO cells. In kind it is cell-based.
Assay [2] deals with T1, 5-hydroxytryptamine receptor 1A (Homo sapiens, UniProt P08908).
T1 sequence (P08908 whole entry): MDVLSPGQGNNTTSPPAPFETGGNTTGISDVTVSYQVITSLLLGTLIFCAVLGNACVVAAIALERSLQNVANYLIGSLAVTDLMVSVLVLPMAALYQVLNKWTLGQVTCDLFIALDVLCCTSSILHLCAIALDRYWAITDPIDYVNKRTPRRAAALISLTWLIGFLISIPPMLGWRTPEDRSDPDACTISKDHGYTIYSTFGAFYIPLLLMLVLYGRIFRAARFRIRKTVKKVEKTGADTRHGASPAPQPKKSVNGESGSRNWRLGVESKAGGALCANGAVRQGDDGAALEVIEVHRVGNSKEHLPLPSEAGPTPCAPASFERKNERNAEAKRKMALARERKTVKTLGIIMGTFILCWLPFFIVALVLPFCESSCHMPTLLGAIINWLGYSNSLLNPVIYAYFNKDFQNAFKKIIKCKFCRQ
The assay can be described thus: Displacement of [3H]8-OH-DPAT from human 5-hydroxytryptamine 1A receptor expressed in CHO cells. In kind it is cell-based.

Assay [3] addresses 5-hydroxytryptamine receptor 7 (Rattus norvegicus) (UniProt P32305). Put plainly: Percent inhibition of 5-HT7-induced stimulation of cAMP production in CHO cells expressing rat 5-HT receptors at a concentration of 1 nM. In kind it is cell-based. For orientation: Cyclic AMP is a second messenger, typically raised through Gs and lowered through Gi signalling.
Assay [4] shares this target. Put plainly: Percent inhibition of 5-HT7-induced stimulation of cAMP production in CHO cells expressing rat 5-HT receptors at a concentration of 100 nM. In kind it is cell-based.
Assay [5] has the same target. Put plainly: Percent inhibition of 5-HT7-induced stimulation of cAMP production in CHO cells expressing rat 5-HT receptors at a concentration of 10000 nM. In kind it is cell-based.
The target is the same in assay [6]. The following applies: CHO; 1 nM.
Assay [7] has the same target. The following applies: CHO; 10000 nM.
The target is the same in assay [8]. The following applies: CHO; 100 nM.
For assay [9] the target is unchanged. The assay can be described thus: Percent inhibition of 5-HT7-induced stimulation of cAMP production in CHO cells expressing rat 5-HT receptors by 100 nM 5-HT. In kind it is cell-based.
Assay [10] shares this target. Put plainly: Percent inhibition of 5-HT7-induced stimulation of cAMP production in CHO cells expressing rat 5-HT receptors by 10000 nM 5-HT. In kind it is cell-based.
Assay [11] has the same target. Put plainly: Percent inhibition of 5-HT7-induced stimulation of cAMP production in CHO cells expressing rat 5-HT receptors by 1 nM 5-HT. In kind it is cell-based.

5-hydroxytryptamine receptor 7, sequence (P32305 whole entry): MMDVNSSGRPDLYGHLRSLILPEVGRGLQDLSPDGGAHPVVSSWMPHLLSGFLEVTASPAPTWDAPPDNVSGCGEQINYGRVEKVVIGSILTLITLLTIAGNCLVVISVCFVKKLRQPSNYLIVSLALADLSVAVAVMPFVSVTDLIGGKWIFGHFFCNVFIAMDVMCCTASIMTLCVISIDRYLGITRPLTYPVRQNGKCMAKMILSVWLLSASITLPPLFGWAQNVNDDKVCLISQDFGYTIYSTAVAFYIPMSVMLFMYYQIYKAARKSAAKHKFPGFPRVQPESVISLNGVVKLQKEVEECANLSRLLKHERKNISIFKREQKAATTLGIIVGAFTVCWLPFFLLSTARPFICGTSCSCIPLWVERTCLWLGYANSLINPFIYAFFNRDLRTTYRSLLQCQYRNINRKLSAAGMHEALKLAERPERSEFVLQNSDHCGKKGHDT
5-hydroxytryptamine receptor 7 (Rattus norvegicus), sequence (P32305 whole entry): as above
D(2) dopamine receptor, sequence (P14416 whole entry): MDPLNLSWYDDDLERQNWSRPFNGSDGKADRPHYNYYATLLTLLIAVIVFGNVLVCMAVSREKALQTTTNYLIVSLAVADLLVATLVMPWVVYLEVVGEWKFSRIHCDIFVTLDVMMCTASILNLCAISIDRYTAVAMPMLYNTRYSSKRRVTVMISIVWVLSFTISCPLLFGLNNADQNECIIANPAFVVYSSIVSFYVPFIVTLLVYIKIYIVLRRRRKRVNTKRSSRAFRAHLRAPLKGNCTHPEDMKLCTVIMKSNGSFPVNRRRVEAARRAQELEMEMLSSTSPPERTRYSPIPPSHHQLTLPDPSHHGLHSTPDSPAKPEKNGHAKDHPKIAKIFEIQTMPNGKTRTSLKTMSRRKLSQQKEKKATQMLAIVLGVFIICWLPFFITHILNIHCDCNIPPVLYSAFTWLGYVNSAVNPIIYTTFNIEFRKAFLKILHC

For `O=C1Nc2cccc3c2[C@]1(CCCCN1CC=C(c2ccccc2)CC1)CCC3`, the Ki on D(2) dopamine receptor was 105 nM; in assay [1], 3.31 nM; in assay [2], 170 nM.
With `CN1CCc2cccc3c2[C@H]1Cc1cccc(-c2ccccc2)c1-3`, the inhibition in [3] turned out to be 23%; in [4] it was 30%; in [5] it was 100%. Moreover, the Ki in [1] was determined as 9.78 nM; in [2], 1.8 nM.
Take `CN1CCc2cccc3c2[C@H]1Cc1cccc(-c2c(O)cccc2O)c1-3`: the inhibitory constant (Ki) is > 1000 nM at D(2) dopamine receptor, 36.2 nM in assay [1] and 139 nM in [2].
Take `CN1CCc2cccc3c2[C@H]1Cc1cccc(-c2c(OS(=O)(=O)C(F)(F)F)cccc2OS(=O)(=O)C(F)(F)F)c1-3`: the Ki on D(2) dopamine receptor is 2260 nM; in [1] it was 708 nM; in assay [2] it was > 10000 nM.
Take `COc1cccc(OC)c1-c1cccc2c1-c1cccc3c1[C@@H](C2)N(C)CC3`: the values for the Ki (at D(2) dopamine receptor; in assay [1]; in assay [2]) were 2030 nM, 13 nM and 554 nM, respectively.
In the same order, the values of `Cc1cccc(O)c1-c1cccc2c1-c1cccc3c1[C@@H](C2)N(C)CC3` (stereo in doubt; form 1) [listing 1 of 2 here] are 2500 nM, 23 nM and 48.8 nM.
Turning to `Cc1cccc(C#N)c1-c1cccc2c1-c1cccc3c1[C@@H](C2)N(C)CC3` (stereo in doubt; form 1) [listing 1 of 2 here], the Ki was determined as 2470 nM at D(2) dopamine receptor, 20.8 nM in assay [1] and 778 nM in assay [2].
As for `Cc1cccc(C#N)c1-c1cccc2c1-c1cccc3c1[C@@H](C2)N(C)CC3` (stereo in doubt; form 1) [listing 2 of 2 here], the inhibition in assay [6] came to 21%; in assay [7], 100%; in [8], 42%.
`Cc1cccc(O)c1-c1cccc2c1-c1cccc3c1[C@@H](C2)N(C)CC3` (stereo in doubt; form 1) [listing 2 of 2 here]: the results for the inhibition in [9], in [10] and in [11] were 72%, 100% and 11%, respectively.
Turning to `Cc1cccc(O)c1-c1cccc2c1-c1cccc3c1[C@@H](C2)N(C)CC3` (stereo in doubt; form 2) [listing 1 of 2 here], the Ki on D(2) dopamine receptor was found to be 3380 nM; in [1], 43.1 nM; in assay [2], 319 nM.
In the same order, the values of `Cc1cccc(C#N)c1-c1cccc2c1-c1cccc3c1[C@@H](C2)N(C)CC3` (stereo in doubt; form 2) are 498 nM, 3.79 nM and 142 nM.
Take `Cc1cccc(O)c1-c1cccc2c1-c1cccc3c1[C@@H](C2)N(C)CC3` (stereo in doubt; form 2) [listing 2 of 2 here]: the results for the inhibition in assay [3], in assay [4] and in assay [5] were 21%, 43% and 100%, respectively.
For `Cc1cccc(S(=O)(=O)N(C)[C@H](C)CCN2CCC(C)CC2)c1` [SB-258719], the inhibition constant Ki in assay [1] was 31.6 nM; in assay [2], > 7940 nM.
